Molecules are shown by their SMILES. Where two headings read alike, the source gives them in different places.

A short description of series [1]: Pharmacokinetic study of six aconitum alkaloids in rat plasma after oral Fu Zi extracts (UPLC-MS/MS). Particulars: both sexes, Sprague Dawley, in vivo, SD rat plasma, mean ± SD, n = 8; for AUC(0-t): read-out: AUC(0–48h); for CL/F: read-out: CLz/F (converted); for Vd/F: read-out: Vz/F; for half-life: read-out: t1/2z (converted). In kind it is in vivo, Sprague Dawley rats. How it is done: Fu Zi (200 g) was taken and broken by a pulverizer to the size of 0.5–1.0 cm. The broken Fu Zi was soaked in 1.6 L distilled water and boiled for 0.5 h. The filtrate was collected and the previous step was repeated for the filtered residue. The mixed filtrates were precipitated with 60% ethanol, and then centrifuged (2000× g, 10 min). The supernatant was decompressed and concentrated to a final density of 2.0 g/mL by the amount of the crude drugs. The final concentration of ethanol in Fu Zi extracts before administration was below 0.5%. The extract was subsequently kept at −20 °C for oral administration to rats.
All samples were analyzed on UPLC® I-Class and Xevo® TQS mass spectrometry combined system. Separations by a Waters ACQUITY UPLC® HSS T3(2.1 mm × 100 mm, 1.8 μm) column were conducted with a mobile phase of water (A) and acetonitrile (B), both containing 0.1% formic acid, at the flow rate of 0.3 mL·min^−1.The run time was 5.0 min and the gradient elution program was adopted as follows: 0–0.3 min, 10% B; 0.3–1 min, 10–50% B; 1–2.5 min, 50–90% B; 2.5–3 min, 90% B; 3–5 min, 10% B. The temperature of the column and samples were set at 45 °C and 10 °C, respectively. The volume of injection was 2 μL.
The detection was quantified by a triple quadrupole mass spectrometer that was set as multiple reactive monitoring (MRM) in the electrospray positive ionization mode (ESI+). The correlative parameters were as follows: capillary voltage: 3 kV; desolvation gas flow: 800 L·h^−1; cone gas flow: 150 L·h^−1; source temperature: 150 °C; desolvation temperature: 500 °C.
The method of […] was utilized. An amount of 100 μL of plasma samples from rats after oral administration of Fu Zi extracts was precipitated with 300 μL of 50% acetonitrile plus 50% methanol, vortexed for 1.0 min and centrifuged at a speed of 12,000× g at 4 °C for 10 min. The supernatant was transferred to another 1.5 mL centrifuge tube, dried with a stream of nitrogen at 40 °C, redissolved in 50 μL methanol and centrifuged at 12,000× g for 10 min. Then, the supernatant was pipetted out into the autosampler vials and analyzed by UPLC-MS/MS system.
24 Sprague Dawley rats (half male and female, weight 180–220 g) were purchased from Beijing Weitong Lihua Biotechnology Co.Ltd. (Beijing, China). The license number of experimental animal production was SCXK (Jing) 2016–0006. The animals were maintained under a standard laboratory condition (humidity: 40–70%, room temperature: 20–26 °C, […], 12 h dark-light cycle) and fed separately. All animal experiments were conducted according to the Guide for the Care and Use of Laboratory Animals (National Research Council of the USA, 1996) and approved by the Institutional Animal Care and Use Committee (IACUC-DWZX-2020-776). After 5 days of acclimation, the rats were fasted for 12 h but provided with water freely before the experiments. The rats were randomly divided into 3 groups: high (2.0 g/kg), middle (1.0 g/kg), and low (0.5 g/kg) dose groups. The Fu Zi extracts was administered to each rat intragastrically. An equivalent of 0.20 mL blood samples were collected from the fossa orbitalis vein into 1.5 mL heparinized centrifuge tubes at the designated time points after dosing: 0.08, 0.25, 0.5, 1, 2, 4, 8, 12, 24, and 48 h. The plasma samples were pipetted out into another 1.5 mL centrifuge tubes after being centrifuged at 5000× g for 10 min and then stored at −20 °C until further analysis.
The data were acquired by […] from Waters (UNIFI). Microsoft Office Excel and the SPSS software (Version 13.0) was used for data analysis. The data below the LLOQ were regarded as zero in summary statistics. The pharmacokinetic parameters were calculated by DAS pharmacokinetic program (Version 2.0) and all analyzed by non-compartmental method. […] All data were presented as mean ± SD. […]

The subject of a further series is normal hiPSC-CMs. Nature of the series: Whole-cell current-clamp action potential recording, normal hiPSC-CMs. The class given is cell-based, human. As to conditions: normal hiPSC-CMs, 0.05, 0.5 and 5 μM, 1 Hz stimulation. The source says:
(§1) Standard patch-clamp techniques were used to record action potentials, and L-type calcium currents. Composition of intracellular fluid and extracellular fluid were shown in Table 7 and Table 8, respectively. The signal was amplified using an HEKA EPC-10 patch-clamp amplifier (HEKA, Electronics, Ludwigshafen, Germany) and low-pass filtered at 5 kHz. Patch pipettes were fabricated from glass capillaries using a Sutter P-97 microelectrode puller (Novato, CA, USA) and the tips were heat polished with a microforge (NARISHIGE MF-900) to gain a resistance of 2–5 MΩ. Data acquisition was achieved using HEKA Patchmaster (V2x73.2). Data analysis and fit were performed using Clamfit and Graphpad Prism 6.0. The experiment was conducted at 37 °C. One cell can test one or more drugs, or multiple concentrations of the same drug but needs to be rinsed with extracellular fluid between each test. Nifedipine (Sigma) was used as a positive control to ensure cell quality. External solution containing 0.1% DMSO was applied as vehicle to establish the baseline. Recording was done at a temperature-controlled room of 35–37 degrees Celsius.
Isoproterenol, nifedipine, and AC were purchased from Sigma-Aldrich, which were resolved in DMSO (Sigma-Aldrich, D2650). Drug compounds final concentration were AC (0.05, 0.5,5 μM), nifedipine (1 μM), isoproterenol (3 μM), respectively. […]

For series [2], the target named is T1, L-type calcium current (ICa,L) in normal hiPSC-CMs (Homo sapiens, UniProt Q13936).
T1 construct: endogenous in cells; host or cells: normal hiPSC-derived cardiomyocytes (hiPSC-CMs)
T1 sequence (Q13936 whole entry): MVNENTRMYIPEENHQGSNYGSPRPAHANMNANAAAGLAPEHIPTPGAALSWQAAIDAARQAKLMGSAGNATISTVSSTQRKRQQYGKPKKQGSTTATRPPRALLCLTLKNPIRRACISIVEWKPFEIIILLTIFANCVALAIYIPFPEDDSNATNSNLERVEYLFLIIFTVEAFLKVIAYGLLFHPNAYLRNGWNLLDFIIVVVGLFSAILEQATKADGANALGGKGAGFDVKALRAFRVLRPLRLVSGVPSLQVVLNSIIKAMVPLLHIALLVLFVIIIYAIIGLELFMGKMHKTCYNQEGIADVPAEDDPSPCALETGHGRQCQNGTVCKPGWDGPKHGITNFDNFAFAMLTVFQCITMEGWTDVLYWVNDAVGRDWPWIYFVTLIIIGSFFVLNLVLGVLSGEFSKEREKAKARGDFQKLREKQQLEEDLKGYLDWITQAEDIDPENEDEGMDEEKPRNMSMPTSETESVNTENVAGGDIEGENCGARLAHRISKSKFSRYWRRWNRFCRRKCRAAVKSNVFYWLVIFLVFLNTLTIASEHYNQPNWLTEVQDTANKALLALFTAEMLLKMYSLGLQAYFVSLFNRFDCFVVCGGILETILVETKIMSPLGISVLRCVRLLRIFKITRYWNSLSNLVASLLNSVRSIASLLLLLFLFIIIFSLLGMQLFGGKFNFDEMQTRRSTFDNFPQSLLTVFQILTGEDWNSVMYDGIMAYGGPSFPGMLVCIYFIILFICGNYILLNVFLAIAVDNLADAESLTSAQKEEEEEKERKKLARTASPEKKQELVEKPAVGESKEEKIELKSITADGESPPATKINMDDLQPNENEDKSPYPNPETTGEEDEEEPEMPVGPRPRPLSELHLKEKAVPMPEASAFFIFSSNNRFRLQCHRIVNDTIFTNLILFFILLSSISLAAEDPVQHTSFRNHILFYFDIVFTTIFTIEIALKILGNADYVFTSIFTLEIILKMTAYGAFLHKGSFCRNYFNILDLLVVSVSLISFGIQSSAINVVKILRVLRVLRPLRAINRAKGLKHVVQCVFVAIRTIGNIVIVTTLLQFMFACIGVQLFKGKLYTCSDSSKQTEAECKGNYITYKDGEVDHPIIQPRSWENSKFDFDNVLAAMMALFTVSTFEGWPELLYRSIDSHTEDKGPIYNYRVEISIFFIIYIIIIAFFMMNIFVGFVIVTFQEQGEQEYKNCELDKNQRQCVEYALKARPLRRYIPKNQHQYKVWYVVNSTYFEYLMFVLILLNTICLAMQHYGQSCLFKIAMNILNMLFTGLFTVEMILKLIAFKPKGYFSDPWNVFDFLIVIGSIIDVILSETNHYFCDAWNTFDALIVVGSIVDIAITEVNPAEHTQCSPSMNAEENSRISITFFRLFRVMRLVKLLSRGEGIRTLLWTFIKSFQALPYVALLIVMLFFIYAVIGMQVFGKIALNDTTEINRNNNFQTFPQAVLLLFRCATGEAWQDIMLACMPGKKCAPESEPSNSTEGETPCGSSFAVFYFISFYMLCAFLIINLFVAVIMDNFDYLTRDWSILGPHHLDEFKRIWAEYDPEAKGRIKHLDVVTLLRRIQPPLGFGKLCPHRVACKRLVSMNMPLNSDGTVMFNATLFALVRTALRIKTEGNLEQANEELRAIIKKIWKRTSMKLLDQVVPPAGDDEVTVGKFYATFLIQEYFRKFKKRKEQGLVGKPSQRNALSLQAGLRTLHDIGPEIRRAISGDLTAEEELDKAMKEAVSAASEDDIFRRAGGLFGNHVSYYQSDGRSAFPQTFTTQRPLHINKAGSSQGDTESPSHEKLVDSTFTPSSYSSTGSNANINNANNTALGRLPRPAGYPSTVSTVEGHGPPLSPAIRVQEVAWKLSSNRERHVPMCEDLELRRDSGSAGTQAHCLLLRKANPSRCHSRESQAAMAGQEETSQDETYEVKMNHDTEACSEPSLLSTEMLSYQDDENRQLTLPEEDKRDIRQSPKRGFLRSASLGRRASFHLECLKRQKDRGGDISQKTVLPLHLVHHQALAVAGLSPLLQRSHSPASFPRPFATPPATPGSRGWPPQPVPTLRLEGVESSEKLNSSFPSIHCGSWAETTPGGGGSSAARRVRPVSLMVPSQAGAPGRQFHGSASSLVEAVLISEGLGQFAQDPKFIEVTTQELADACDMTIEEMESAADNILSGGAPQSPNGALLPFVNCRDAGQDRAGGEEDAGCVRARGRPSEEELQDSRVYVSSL
T1 sequence (Q08289 whole entry partner): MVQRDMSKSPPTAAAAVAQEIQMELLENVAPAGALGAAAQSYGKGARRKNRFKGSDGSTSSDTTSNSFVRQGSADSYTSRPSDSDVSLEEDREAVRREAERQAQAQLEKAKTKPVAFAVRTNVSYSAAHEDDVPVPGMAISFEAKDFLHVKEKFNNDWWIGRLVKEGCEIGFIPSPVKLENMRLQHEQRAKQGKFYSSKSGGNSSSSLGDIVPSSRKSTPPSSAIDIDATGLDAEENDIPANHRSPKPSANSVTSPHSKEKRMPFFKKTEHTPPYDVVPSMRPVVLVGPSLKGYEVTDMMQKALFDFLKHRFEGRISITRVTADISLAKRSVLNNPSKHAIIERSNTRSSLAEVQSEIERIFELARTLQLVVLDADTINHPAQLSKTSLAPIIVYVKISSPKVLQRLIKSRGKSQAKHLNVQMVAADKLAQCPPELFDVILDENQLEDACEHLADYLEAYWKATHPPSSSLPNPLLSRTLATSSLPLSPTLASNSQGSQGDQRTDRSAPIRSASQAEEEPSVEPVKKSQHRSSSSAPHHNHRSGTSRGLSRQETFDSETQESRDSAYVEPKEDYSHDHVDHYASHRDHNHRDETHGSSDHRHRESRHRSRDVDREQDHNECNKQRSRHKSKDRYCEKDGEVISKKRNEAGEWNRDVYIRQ
T1 sequence (P54289 25-956 partner limits assumed): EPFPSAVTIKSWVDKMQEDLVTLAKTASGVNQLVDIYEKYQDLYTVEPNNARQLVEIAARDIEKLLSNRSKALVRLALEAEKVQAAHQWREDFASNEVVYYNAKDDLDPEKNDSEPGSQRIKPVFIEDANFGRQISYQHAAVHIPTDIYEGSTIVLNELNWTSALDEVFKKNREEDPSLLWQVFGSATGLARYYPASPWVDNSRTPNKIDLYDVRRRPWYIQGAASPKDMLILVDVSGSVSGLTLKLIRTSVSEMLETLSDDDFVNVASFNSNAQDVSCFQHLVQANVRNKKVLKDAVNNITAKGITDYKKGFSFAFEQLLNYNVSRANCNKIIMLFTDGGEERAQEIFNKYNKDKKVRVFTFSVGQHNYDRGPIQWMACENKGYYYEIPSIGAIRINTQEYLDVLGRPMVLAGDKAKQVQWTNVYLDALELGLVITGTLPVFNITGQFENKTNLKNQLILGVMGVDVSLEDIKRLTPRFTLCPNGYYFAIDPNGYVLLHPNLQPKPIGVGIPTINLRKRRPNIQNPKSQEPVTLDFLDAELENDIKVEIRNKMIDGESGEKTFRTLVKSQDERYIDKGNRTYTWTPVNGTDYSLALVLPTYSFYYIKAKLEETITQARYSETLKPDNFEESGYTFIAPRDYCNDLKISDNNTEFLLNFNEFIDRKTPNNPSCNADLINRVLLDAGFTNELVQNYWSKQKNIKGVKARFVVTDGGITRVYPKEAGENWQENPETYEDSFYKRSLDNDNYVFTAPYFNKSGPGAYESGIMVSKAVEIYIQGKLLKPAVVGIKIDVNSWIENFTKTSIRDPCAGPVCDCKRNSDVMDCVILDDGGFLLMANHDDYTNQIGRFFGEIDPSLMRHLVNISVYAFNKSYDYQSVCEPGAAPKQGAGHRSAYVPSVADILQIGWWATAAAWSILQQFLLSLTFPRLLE
T1 sequence (P54289 957-1103 partner limits assumed): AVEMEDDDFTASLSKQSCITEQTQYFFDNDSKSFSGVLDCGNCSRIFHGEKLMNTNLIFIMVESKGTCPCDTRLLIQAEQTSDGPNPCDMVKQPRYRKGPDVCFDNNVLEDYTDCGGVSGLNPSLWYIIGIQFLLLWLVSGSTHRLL
Kind of series: Patch-clamp L-type calcium current, normal hiPSC-CMs. The class given is cell-based.
Source text: as §1
Isoproterenol, nifedipine, and AC were purchased from Sigma-Aldrich, which were resolved in DMSO (Sigma-Aldrich, D2650). Drug compounds final concentration were AC (0.05, 0.5,5 μM), nifedipine (1 μM), isoproterenol (3 μM), respectively. Dilutions were prepared within 60 min of treatment. All the compound solutions were subjected to regular 10 min ultrasound and oscillations to ensure that compounds were completely dissolved. Equal amounts of DMSO (0.1%) were used as the vehicle controls.
For orientation: Patch clamp records ionic current or voltage across a cell membrane.

The Cmax is the peak of the concentration-time curve. By Tmax is commonly meant the time from dosing to the highest level. The IC50 is the concentration needed to halve the response being measured. Consider `CCN1C[C@]2(COC)[C@H](O)C[C@H](OC)[C@@]34[C@@H]5C[C@@]6(O)[C@H](OC(=O)c7ccccc7)[C@@H]5[C@@](OC(C)=O)([C@@H]([C@H](OC)[C@H]23)[C@@H]14)[C@@H](O)[C@@H]6OC` [AC, aconitine], for which, in series [1] (oral Fu Zi extracts 0.5 g/kg), the peak level (Cmax) was 1.28 ± 0.34 ng/mL, the time of peak concentration (Tmax) came out at 4.38 ± 3.11 h, the AUC(0-t) is 13.5 ± 3.28 ng·h/mL and the CL/F is 77 mL/min/kg. Also, in series [1] (oral Fu Zi extracts 0.5 g/kg), the Vd/F was found to be 14 ± 4.33 L/kg and the half-life is 1.9 ± 0.31 h. Also, in series [1] (oral Fu Zi extracts 1.0 g/kg), the peak concentration (Cmax) came out at 1.69 ± 0.33 ng/mL, the Tmax was 3.13 ± 1.25 h, the AUC(0-t) was found to be 17.1 ± 4.68 ng·h/mL and the CL/F is 106 mL/min/kg. Besides, in series [1] (oral Fu Zi extracts 1.0 g/kg), the Vd/F was found to be 70 ± 33.4 L/kg and the half-life is 7.53 ± 2.74 h. In addition, in series [1] (oral Fu Zi extracts 2.0 g/kg), the highest level (Cmax) was 2.27 ± 0.7 ng/mL, the time of peak concentration (Tmax) worked out at 1.03 ± 0.84 h, the AUC(0-t) turned out to be 23.8 ± 7.77 ng·h/mL and the CL/F is 148 mL/min/kg. In series [1] (oral Fu Zi extracts 2.0 g/kg), the Vd/F was found to be 167 ± 80.1 L/kg and the half-life was 11.5 ± 4.3 h. For the same molecule, the APD50 result in the series on normal hiPSC-CMs is on record as “concentration-dependently shortened”. The IC50 in series [2] (normal (control) hiPSC-CMs, tested 0.05–5 μM, no concentration dependence, read-out: IC50, inhibition of L-type calcium current) is > 5 µM. Moreover, the “peak value of L-type calcium current” value in series [2] (normal group, 0.05–5 μM) is reported as “significantly decreased”. For the same molecule, in series [2] (normal hiPSC-CMs, estimated beyond tested range 0.05–5 μM, read-out: IC50 (eIC50) on ICa,L), the IC50 is 27.5 µM.

The values above are taken from publication PMC9268243, “Metabolic Behaviors of Aconitum Alkaloids in Different Concentrations of Aconiti Lateralis Radix Praeparata and Effects of Aconitine in Healthy Human and Long QT Syndrome Cardiomyocytes” (Molecules, 2022).
